Data from US6746667B2, “Adhesive treatment for tinea pedis” (Closure Medical Corporation, priority 2001, dated 2004).

Assay: observation of haloprogin / 2-octyl cyanoacrylate monomer composition after preparation
Assay type: physicochemical
Settings: 30 mg in 2 mL 2-octyl cyanoacrylate monomer; about one minute and at least twenty-four hours after preparation
Method: A 2-octyl cyanoacrylate monomer composition is prepared by adding 30 mg of haloprogin, an anti-fungal agent, to 2 mL of 2-octyl cyanoacrylate monomer. The mixture is sealed in a glass vial and stirred. The characteristics of the composition are observed at about one minute after preparation and later at least twenty-four hours after preparation.

Clc1cc(Cl)c(OCC#CI)cc1Cl [haloprogin]
premature polymerization of the monomer (stability): does not cause premature polymerization | solubility in the monomer: soluble in the monomer
